Assay results reported in the Kinase Knowledgebase extract (Sharma et al. 2016).

Columns and labels:
[1] = target: PIK3CD (Human) (UniProt O00329); assay: Assessment of PIK3CD Kinase Activity
[2] = target: PIK3CB (Human) (UniProt P42338); assay: Assessment of PIK3CB Kinase Activity
[3] = target: PIK3CG (human) (UniProt P48736); assay: Assessment of PIK3CG Kinase Activity
[4] = target: PIK3CA (human) (UniProt P42336); assay: Assessment of PIK3CA Kinase Activity
PIK3CA (human), sequence (P42336 whole entry, looked up): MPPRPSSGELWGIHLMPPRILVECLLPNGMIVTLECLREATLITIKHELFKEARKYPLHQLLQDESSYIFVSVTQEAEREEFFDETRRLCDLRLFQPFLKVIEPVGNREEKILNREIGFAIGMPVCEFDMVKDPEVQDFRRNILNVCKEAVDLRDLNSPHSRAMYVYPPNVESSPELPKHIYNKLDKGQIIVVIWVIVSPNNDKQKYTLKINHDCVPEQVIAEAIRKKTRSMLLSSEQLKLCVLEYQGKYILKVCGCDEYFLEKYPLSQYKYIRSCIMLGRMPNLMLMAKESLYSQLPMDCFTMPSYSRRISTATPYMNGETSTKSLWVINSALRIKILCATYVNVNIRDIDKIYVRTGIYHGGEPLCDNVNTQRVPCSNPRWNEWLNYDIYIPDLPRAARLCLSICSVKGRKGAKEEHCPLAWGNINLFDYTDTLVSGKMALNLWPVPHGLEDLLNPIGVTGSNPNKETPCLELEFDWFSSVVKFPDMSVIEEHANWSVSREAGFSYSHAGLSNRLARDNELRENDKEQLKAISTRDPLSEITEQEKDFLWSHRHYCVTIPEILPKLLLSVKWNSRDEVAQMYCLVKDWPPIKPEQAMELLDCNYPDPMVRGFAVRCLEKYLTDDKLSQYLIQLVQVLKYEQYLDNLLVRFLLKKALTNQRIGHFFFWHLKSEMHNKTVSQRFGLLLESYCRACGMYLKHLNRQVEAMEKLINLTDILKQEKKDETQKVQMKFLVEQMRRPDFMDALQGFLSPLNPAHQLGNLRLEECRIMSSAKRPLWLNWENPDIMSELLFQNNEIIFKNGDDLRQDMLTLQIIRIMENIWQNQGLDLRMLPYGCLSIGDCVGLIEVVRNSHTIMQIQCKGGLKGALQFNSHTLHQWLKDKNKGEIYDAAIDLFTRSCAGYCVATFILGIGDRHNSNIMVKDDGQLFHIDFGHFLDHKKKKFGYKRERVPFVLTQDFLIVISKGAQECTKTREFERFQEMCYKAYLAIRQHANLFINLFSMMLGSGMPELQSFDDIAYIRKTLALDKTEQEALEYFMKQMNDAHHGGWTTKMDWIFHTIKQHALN

PIK3CB (Human), sequence (P42338 whole entry, looked up): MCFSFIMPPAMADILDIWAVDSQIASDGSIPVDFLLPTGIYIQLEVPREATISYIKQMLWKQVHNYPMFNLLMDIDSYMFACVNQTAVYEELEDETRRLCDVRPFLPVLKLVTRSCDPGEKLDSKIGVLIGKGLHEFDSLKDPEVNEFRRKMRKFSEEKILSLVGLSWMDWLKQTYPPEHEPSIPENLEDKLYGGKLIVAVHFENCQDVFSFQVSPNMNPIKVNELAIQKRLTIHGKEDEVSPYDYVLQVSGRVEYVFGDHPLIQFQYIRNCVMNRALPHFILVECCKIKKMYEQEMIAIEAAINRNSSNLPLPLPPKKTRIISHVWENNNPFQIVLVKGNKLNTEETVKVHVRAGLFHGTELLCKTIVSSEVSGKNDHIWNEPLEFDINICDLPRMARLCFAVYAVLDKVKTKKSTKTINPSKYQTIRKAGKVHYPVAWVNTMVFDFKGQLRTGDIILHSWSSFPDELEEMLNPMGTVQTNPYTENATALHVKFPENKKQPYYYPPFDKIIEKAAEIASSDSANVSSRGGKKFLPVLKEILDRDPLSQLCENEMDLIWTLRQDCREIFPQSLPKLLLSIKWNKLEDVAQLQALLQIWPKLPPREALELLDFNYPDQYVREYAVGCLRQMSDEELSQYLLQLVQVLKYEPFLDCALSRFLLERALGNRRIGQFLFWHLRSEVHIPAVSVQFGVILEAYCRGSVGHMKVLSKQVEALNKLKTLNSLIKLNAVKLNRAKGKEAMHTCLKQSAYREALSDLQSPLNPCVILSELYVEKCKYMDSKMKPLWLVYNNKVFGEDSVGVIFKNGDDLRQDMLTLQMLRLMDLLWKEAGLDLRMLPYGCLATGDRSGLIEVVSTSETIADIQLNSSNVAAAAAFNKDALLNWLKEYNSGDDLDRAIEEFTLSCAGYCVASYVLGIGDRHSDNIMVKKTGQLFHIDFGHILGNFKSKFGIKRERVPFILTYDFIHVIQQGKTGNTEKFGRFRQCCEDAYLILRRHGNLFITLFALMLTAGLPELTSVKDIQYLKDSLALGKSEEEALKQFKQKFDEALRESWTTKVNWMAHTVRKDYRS
PIK3CD (Human), sequence (O00329 whole entry, looked up): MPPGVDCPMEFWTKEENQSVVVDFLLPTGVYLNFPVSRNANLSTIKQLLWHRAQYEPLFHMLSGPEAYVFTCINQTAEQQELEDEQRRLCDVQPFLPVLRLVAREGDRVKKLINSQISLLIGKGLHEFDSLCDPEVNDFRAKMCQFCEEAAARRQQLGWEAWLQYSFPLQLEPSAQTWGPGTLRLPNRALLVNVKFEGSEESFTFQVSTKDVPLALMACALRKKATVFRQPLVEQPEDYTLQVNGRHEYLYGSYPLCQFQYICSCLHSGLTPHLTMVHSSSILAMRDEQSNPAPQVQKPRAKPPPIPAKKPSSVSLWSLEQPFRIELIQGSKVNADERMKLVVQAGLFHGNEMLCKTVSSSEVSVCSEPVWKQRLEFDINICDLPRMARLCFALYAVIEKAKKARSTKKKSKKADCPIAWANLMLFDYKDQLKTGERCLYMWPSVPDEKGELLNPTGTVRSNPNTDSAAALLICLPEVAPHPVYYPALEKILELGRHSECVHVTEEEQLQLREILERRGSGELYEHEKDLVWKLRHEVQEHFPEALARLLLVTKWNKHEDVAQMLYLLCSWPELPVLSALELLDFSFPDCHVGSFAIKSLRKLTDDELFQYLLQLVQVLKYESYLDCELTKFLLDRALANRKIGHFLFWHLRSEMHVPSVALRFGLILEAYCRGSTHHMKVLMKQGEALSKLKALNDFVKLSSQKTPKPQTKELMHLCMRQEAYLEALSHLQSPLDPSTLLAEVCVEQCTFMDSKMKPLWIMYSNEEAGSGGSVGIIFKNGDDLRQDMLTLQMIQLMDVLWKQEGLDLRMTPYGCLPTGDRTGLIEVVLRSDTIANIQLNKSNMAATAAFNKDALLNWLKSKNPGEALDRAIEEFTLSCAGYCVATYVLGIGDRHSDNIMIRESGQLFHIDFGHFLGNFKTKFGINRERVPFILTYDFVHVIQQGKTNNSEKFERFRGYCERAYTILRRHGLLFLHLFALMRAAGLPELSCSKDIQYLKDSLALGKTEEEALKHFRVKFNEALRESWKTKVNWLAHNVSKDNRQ
PIK3CG (human), sequence (P48736 whole entry, looked up): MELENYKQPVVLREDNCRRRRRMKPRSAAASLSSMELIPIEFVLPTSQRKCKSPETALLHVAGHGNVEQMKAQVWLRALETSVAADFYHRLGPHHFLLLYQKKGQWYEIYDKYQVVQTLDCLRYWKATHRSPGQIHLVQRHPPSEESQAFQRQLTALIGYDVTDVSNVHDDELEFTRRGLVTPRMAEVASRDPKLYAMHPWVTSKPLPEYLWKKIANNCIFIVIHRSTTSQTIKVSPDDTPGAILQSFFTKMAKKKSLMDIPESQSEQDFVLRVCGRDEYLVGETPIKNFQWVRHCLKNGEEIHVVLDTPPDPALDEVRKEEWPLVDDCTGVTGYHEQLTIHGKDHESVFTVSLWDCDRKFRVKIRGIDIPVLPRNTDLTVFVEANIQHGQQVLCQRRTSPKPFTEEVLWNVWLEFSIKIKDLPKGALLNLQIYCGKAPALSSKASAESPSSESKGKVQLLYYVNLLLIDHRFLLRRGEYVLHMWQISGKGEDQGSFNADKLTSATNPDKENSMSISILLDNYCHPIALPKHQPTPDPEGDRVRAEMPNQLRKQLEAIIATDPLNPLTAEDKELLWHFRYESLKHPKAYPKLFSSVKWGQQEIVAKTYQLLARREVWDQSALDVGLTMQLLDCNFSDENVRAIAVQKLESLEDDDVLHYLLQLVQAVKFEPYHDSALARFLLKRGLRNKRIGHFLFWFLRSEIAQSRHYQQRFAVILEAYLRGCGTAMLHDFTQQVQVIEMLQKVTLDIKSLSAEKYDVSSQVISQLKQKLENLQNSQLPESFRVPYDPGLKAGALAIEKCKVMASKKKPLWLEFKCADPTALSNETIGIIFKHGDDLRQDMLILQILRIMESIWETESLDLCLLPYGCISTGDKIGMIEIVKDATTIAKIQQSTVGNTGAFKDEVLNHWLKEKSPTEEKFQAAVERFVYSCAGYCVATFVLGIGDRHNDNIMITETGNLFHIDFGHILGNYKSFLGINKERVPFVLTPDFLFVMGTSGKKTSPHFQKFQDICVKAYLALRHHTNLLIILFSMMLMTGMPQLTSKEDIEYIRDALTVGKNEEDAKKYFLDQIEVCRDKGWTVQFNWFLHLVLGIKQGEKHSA

| SMILES | IC50 [1] [µM] | IC50 [2] [µM] | IC50 [3] [µM] | IC50 [4] [µM] |
| --- | --- | --- | --- | --- |
| C[C@H](Nc1nc(N)ncc1C#N)c1cc2cccc(-c3ccc(S(C)(=O)=O)cc3)c2c(=O)n1-c1ccccc1 | < 0.1 | > 10 | < 0.1 |  |
| Cc1ncc(-c2cccc3cc([C@H](C)Nc4nc(N)ncc4C#N)n(-c4cccc(F)c4)c(=O)c23)cn1 | < 0.1 | > 10 | < 0.1 |  |
| COc1cc(-c2cccc3cc([C@H](C)N)n(-c4ccccc4)c(=O)c23)cnc1C |  | 0.1 to 1 |  |  |
| C#Cc1cnc(N)nc1N[C@@H](C)c1cc2cccc(Cl)c2c(=O)n1-c1ccccc1 | < 0.1 | 0.1 to 1 | < 0.1 |  |
| C[C@H](Nc1nc(N)ncc1C#N)c1cc2cccc(Cl)c2c(=O)n1-c1ccon1 | < 0.1 | 0.1 to 1 | < 0.1 |  |
| COc1cc(-c2cccc3cc([C@H](C)Nc4nc(N)ncc4-c4cccnc4)n(-c4ccccc4)c(=O)c23)ccn1 | 0.1 to 1 | > 10 | 0.1 to 1 |  |
| C[C@H](Nc1nc(N)ncc1C(=O)N(C)C)c1cc2cccc(-c3cnn(C)c3)c2c(=O)n1-c1ccccc1 | < 0.1 | > 10 | < 0.1 |  |
| Cc1cccc2cc([C@H](C)Nc3nc(N)ncc3C#N)n(-c3cccc(F)c3)c(=O)c12 | < 0.1 | 0.1 to 1 | < 0.1 |  |
| C[C@H](Nc1nc(N)ncc1C(=O)N(C)C)c1cc2cccc(Cl)c2c(=O)n1-c1ccccc1 | < 0.1 | 0.1 to 1 | < 0.1 |  |
| COc1ccc(-c2cccc3cc([C@H](C)Nc4nc(N)ncc4C#N)n(-c4ccccc4)c(=O)c23)nc1 | < 0.1 | > 10 | < 0.1 |  |
| C[C@H](Nc1nc(N)ncc1C#N)c1cc2cccc(-c3cccc(NS(=O)(=O)N(C)C)c3)c2c(=O)n1-c1ccccc1 | < 0.1 | > 10 | 0.1 to 1 |  |
| C[C@H](Nc1nc(N)ncc1C#N)c1cc2cccc(Cl)c2c(=O)n1-c1ccc(F)cc1F | < 0.1 | 0.1 to 1 | < 0.1 |  |
| C[C@H](Nc1nc(N)ncc1C#N)c1cc2cccc(-c3cccc(F)c3)c2c(=O)n1-c1ccccc1 | < 0.1 | 0.1 to 1 | < 0.1 |  |
| C[C@H](Nc1nc(N)ncc1C#N)c1cc2cccc(-c3cncc(OC(F)F)c3)c2c(=O)n1-c1ccccc1 | < 0.1 | > 10 | < 0.1 |  |
| C[C@H](Nc1nc(N)ncc1C#N)c1cc2cccc(Cl)c2c(=O)n1-c1cc(F)ccc1F | < 0.1 | 0.1 to 1 | < 0.1 |  |
| C[C@H](Nc1nc(N)ncc1C#N)c1cc2cccc(Cl)c2c(=O)n1-c1ccccc1F | < 0.1 | 0.1 to 1 | < 0.1 |  |
| COc1cc(-c2cccc3cc([C@H](C)Nc4nc(N)ncc4-c4cnc(OC)s4)n(-c4ccccc4)c(=O)c23)ccn1 | < 0.1 |  | < 0.1 | 0.1 to 1 |
| C[C@H](Nc1nc(N)ncc1-c1ccncc1)c1cc2cccc(Cl)c2c(=O)n1-c1ccccc1 | 0.1 to 1 |  | < 0.1 | > 10 |
| C[C@H](Nc1nc(N)ncc1C#N)c1cc2cccc(Cl)c2c(=O)n1-c1cccc(F)c1 | < 0.1 | 0.1 to 1 | < 0.1 |  |
| C[C@H](Nc1nc(N)ncc1C#N)c1cc2cccc(Cl)c2c(=O)n1-c1ccc(Cl)cc1 | < 0.1 | 0.1 to 1 | < 0.1 |  |

| SMILES | IC50 [1] [µM] | IC50 [2] [µM] | IC50 [3] [µM] | IC50 [4] [µM] |
| --- | --- | --- | --- | --- |
| Cc1csc(-c2cnc(N)nc2N[C@@H](C)c2cc3cccc(Cl)c3c(=O)n2-c2ccccc2)n1 | < 0.1 | 0.1 to 1 | < 0.1 |  |
| C[C@H](Nc1nc(N)ncc1C#N)c1cc2cccc(-c3ccc(=O)n(C4CCCC4)c3)c2c(=O)n1-c1ccccc1 | < 0.1 |  | < 0.1 | 0.1 to 1 |
| C[C@H](Nc1nc(N)ncc1C#N)c1cc2cccc(Cl)c2c(=O)n1-c1ccccc1 | < 0.1 | < 0.1 | < 0.1 |  |
| C#Cc1cccc2cc([C@H](C)Nc3nc(N)ncc3C#N)n(-c3ccccc3)c(=O)c12 | < 0.1 | 0.1 to 1 | < 0.1 |  |
| C[C@H](Nc1nc(N)ncc1C#N)c1cc2cccc(-c3cnc4ccccc4c3)c2c(=O)n1-c1cccc(F)c1 | < 0.1 |  | < 0.1 | 0.1 to 1 |
| COc1cc(-c2cccc3cc([C@H](C)Nc4nc(N)ncc4-c4ccncc4)n(-c4ccccc4)c(=O)c23)ccn1 | < 0.1 | > 10 | < 0.1 |  |
| COc1ccc(-c2cccc3cc([C@H](C)Nc4nc(N)ncc4C#N)n(C4CC4)c(=O)c23)cn1 | < 0.1 | 0.1 to 1 | < 0.1 |  |
| C[C@H](Nc1nc(N)ncc1-c1cscn1)c1cc2cccc(Cl)c2c(=O)n1-c1ccccc1 | < 0.1 | 0.1 to 1 | < 0.1 |  |
| C[C@H](Nc1nc(N)ncc1C#N)c1cc2cccc(-c3ccnnc3)c2c(=O)n1-c1ccccc1 | < 0.1 | > 10 | 0.1 to 1 |  |
| C[C@H](Nc1nc(N)ncc1C#N)c1cc2cccc(-c3ccc(=O)n(C4CCOCC4)c3)c2c(=O)n1-c1ccccc1 | < 0.1 |  | < 0.1 | 0.1 to 1 |
| CC#Cc1cccc2cc([C@H](C)Nc3nc(N)ncc3C#N)n(-c3ccccc3)c(=O)c12 | < 0.1 | 0.1 to 1 | < 0.1 |  |
| C[C@H](Nc1nc(N)ncc1C#N)c1cc2cccc(Cl)c2c(=O)n1-c1ccc2c(c1)OCO2 | 0.1 to 1 |  | < 0.1 | > 10 |
| Cc1cc(-c2cccc3cc([C@H](C)Nc4nc(N)ncc4C#N)n(-c4ccccc4)c(=O)c23)ccn1 | < 0.1 |  | < 0.1 | 0.1 to 1 |
| CCOc1cc(-c2cccc3cc([C@H](C)Nc4nc(N)ncc4C#N)n(-c4ccccc4)c(=O)c23)ccn1 | < 0.1 |  | < 0.1 | 0.1 to 1 |
| COc1cc(-c2cccc3cc([C@H](C)Nc4nc(N)ncc4C#N)n(-c4ccccc4)c(=O)c23)cnc1OC | < 0.1 |  | < 0.1 | < 0.1 |
| Cc1cccc(-c2cccc3cc([C@H](C)Nc4nc(N)ncc4C#N)n(-c4ccccc4)c(=O)c23)c1 | < 0.1 |  | < 0.1 | 0.1 to 1 |
| C[C@H](Nc1nc(N)ncc1-c1ncco1)c1cc2cccc(Cl)c2c(=O)n1-c1ccccc1 | < 0.1 | 0.1 to 1 | < 0.1 |  |
| CCOc1ncc(-c2cnc(N)nc2N[C@@H](C)c2cc3cccc(Cl)c3c(=O)n2-c2ccccc2)s1 | < 0.1 | 0.1 to 1 | < 0.1 |  |
| C[C@H](Nc1nc(N)ncc1C#N)c1cc2cccc(-c3cncc(O)c3)c2c(=O)n1-c1ccccc1 | < 0.1 |  | < 0.1 | < 0.1 |
| C[C@H](Nc1nc(N)ncc1-c1ccsc1)c1cc2cccc(Cl)c2c(=O)n1-c1ccccc1 | < 0.1 |  | < 0.1 | > 10 |

| SMILES | IC50 [1] [µM] | IC50 [2] [µM] | IC50 [3] [µM] | IC50 [4] [µM] |
| --- | --- | --- | --- | --- |
| C[C@H](Nc1nc(N)ncc1-c1ccc(O)cc1)c1cc2cccc(Cl)c2c(=O)n1-c1ccccc1 | 0.1 to 1 |  | < 0.1 | > 10 |
| CCn1c([C@H](C)Nc2nc(N)ncc2C#N)cc2cccc(Cl)c2c1=O | < 0.1 | < 0.1 | < 0.1 |  |
| COc1cc(-c2cccc3cc([C@H](C)Nc4nc(N)ncc4C#N)n(-c4cccc(F)c4)c(=O)c23)ccn1 | < 0.1 |  | < 0.1 | 0.1 to 1 |
| C[C@H](Nc1nc(N)ncc1-c1ccccn1)c1cc2cccc(Cl)c2c(=O)n1-c1ccccc1 | 0.1 to 1 |  | < 0.1 | > 10 |
| Cc1ccc(-c2cccc3cc([C@H](C)Nc4nc(N)ncc4C#N)n(-c4ccccc4)c(=O)c23)cn1 | < 0.1 | > 10 | < 0.1 |  |
| Cc1ncc(-c2cccc3cc([C@H](C)Nc4nc(N)ncc4C#N)n(-c4ccccc4)c(=O)c23)cn1 | < 0.1 | > 10 | < 0.1 |  |
| COc1cc(-c2cccc3cc([C@H](C)Nc4nc(N)ncc4C#N)n(-c4ccccc4)c(=O)c23)cnc1C | < 0.1 |  | < 0.1 | 0.1 to 1 |
| Cc1cncc(-c2cccc3cc([C@H](C)Nc4nc(N)ncc4C#N)n(-c4cccc(F)c4)c(=O)c23)c1 | < 0.1 |  | < 0.1 | 0.1 to 1 |
| CNc1cc(-c2cccc3cc([C@H](C)Nc4nc(N)ncc4C#N)n(-c4ccccc4)c(=O)c23)ccn1 | < 0.1 | > 10 | < 0.1 |  |
| C[C@H](Nc1nc(N)ncc1C#N)c1cc2cccc(Cl)c2c(=O)n1-c1cccc(F)c1F | < 0.1 |  | < 0.1 | > 10 |
| CC(C)Oc1cncc(-c2cccc3cc([C@H](C)Nc4nc(N)ncc4C#N)n(-c4ccccc4)c(=O)c23)c1 | < 0.1 |  | < 0.1 | < 0.1 |
| C[C@H](Nc1nc(N)ncc1C#N)c1cc2cccc(O)c2c(=O)n1-c1ccccc1 | < 0.1 |  | < 0.1 | > 10 |
| C[C@H](Nc1nc(N)ncc1C#N)c1cc2cccc(Cl)c2c(=O)n1Cc1ccccc1 | < 0.1 |  | 0.1 to 1 | > 10 |
| COc1ccc(-n2c([C@H](C)Nc3nc(N)ncc3C#N)cc3cccc(Cl)c3c2=O)cc1 | 0.1 to 1 |  | < 0.1 | > 10 |
| C[C@H](Nc1nc(N)ncc1C#N)c1cc2cccc(-c3cccc(N(C)C)c3)c2c(=O)n1-c1ccccc1 | < 0.1 |  | < 0.1 | 0.1 to 1 |
| Cc1cnc(-c2cnc(N)nc2N[C@@H](C)c2cc3cccc(Cl)c3c(=O)n2-c2ccccc2)s1 | 0.1 to 1 |  | < 0.1 | > 10 |
| C[C@H](Nc1nc(N)ncc1-c1cnn(C)c1)c1cc2cccc(Cl)c2c(=O)n1-c1ccccc1 | 0.1 to 1 |  | < 0.1 | > 10 |
| COc1cccc(-c2cccc3cc([C@H](C)Nc4nc(N)ncc4C#N)n(-c4ccccc4)c(=O)c23)c1 | < 0.1 |  | < 0.1 | < 0.1 |
| COc1cncc(-c2cccc3nc([C@H](C)Nc4nc(N)ncc4C#N)n(-c4ccccc4)c(=O)c23)c1 | < 0.1 |  | < 0.1 | 0.1 to 1 |
